Measured values published in US12606540B2, “Triazolone compound” (MEDSHINE DISCOVERY INC., priority 2020, dated 2026).

System: dextran sulfate sodium (DSS) induced colitis model
Assay: DSS induced colitis model in mice
Assay type: in vivo, C57BL/6 mice
Description: • 6.1 Purpose of the study: In order to verify the effect of the test sample on dextran sulfate sodium (DSS) induced colitis model in […] mice. • 6.2 Experimental design for inducing colitis: The mice in the vehicle and administration groups were administered on Day 0 for 1 h, and the mice freely drank water containing 3% DSS until Day 7, after Day 8, the mice were euthanized and their colon was taken for analysis. C57BL/6 mice, 8 weeks of age, 18-20 g, female. Administration was started on Day 0 to Day 7 for both the vehicle and administration groups. • 6.3 Drinking water containing DSS: The appropriate amount of DSS powder was dissolved in autoclaved drinking water and configured as a 3% DSS solution. • 6.4 Administration: Animals of group 1 were given the vehicle, animals of group 2 were given compound 5, and animals of group 3 were given normal drinking water and the vehicle, the vehicle was 5% DMSO/10% Solutol solution/0.2% Tween80/84.8% aqueous solution, with twice a day. 6.5 Measurement 6.5.1 Weight
Recording frequency was once a day, Days 0 to 8.
The recording frequency is once a day, Days 0 to 8, and is rated at 4 grades according to the following criteria: • Weight change (0, ≤1%; 1, 1-5%; 2, 6-10%; 3, 11-20%; 4, >20%). • Hematochezia (0, negative; 1, weakly positive for occult blood; 2, positive for occult blood; 3, significant hematochezia; 4, massive hematochezia) • Stool score (0, normal; 1, soft stool; 2, flaccid stool; 3, loose stool; 4, diarrhea)
The daily disease index is obtained by adding the scores of the above three parts.
On Day 8, all animals received an overdose of CO2 and were executed by cervical dislocation. The abdominal cavity was cut open and the colon of the mice was taken, the tissue around the colon was removed, and the longitudinal length from the ileocecum to the anus was measured and the whole was photographed. The colon was dissected, the intestinal contents were cleaned, weighed separately, and the stool consistency was recorded.
The colonic tissue was divided into two longitudinally and one was fixed in 10% neutral paraformaldehyde in the form of “Swiss” rolls.
The experimental data were expressed as mean±standard error (S.E.M.). Data were adopted by GraphPad Prism and analyzed by ANOVA statistical method. P<0.05 was considered as statistical difference.

[1] = 5 mpk/BID, compared with the modeling group, p<0.0001

CCn1c(CO)nn(-c2cc(O[C@@H](C)C(F)(F)F)c(/C(F)=C/c3ncccc3Cl)cc2F)c1=O [Compound 5]
Level of inflammatory factor TNF-α in the colonic mucosa (5 mg/kg BID, Day 8, p<0.05 compared with the modeling group): effectively reduces
Colon length (colonic shortening) at the experimental endpoint [1]: significantly improves
Colonic density at the experimental endpoint [1]: significantly improves the inflammation-induced increase of colonic density
DAI (Disease Activity Index) score (compared to the modeling group, administration for 6 days, Day 8 p<0.0001): significantly improved
Animal weight change (compared with the modeling group, p<0.01 on Day 8, twice a day): significantly slow down the weight loss of mice
